In ChEMBL document CHEMBL5390251, “Pyrazolidinone-based peptidomimetic SARS-CoV-2 Mpro inhibitors” (Bioorg Med Chem Lett, 2023):
Calls of active or inactive are those of the source. No cut-off for these calls is given here.

Key:
[1] = target: Replicase polyprotein 1ab (Severe acute respiratory syndrome coronavirus 2, UniProt P0DTD1); experiment: Inhibition of SARS-Cov-2 Main protease by FRET assay
[2] = target: T1, Cathepsin K (Homo sapiens, UniProt P43235); experiment: Inhibition of human Cathepsin K
T1 sequence (P43235 whole entry): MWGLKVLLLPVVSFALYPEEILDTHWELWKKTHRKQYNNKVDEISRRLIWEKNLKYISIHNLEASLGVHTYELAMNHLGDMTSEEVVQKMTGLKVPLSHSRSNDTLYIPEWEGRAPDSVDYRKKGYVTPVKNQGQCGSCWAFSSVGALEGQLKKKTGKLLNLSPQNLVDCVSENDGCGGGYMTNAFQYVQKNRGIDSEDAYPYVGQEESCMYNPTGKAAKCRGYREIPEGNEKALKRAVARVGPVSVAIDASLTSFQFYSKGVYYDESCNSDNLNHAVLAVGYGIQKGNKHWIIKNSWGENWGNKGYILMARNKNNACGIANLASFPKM

[3] = target: Replicase polyprotein 1ab (Severe acute respiratory syndrome coronavirus 2) (UniProt P0DTD1); experiment: Uncompetitive inhibition of SARS-Cov-2 Main protease by Lineweaver-Burk plot analysis
[4] = target: Replicase polyprotein 1ab (Severe acute respiratory syndrome coronavirus 2) (UniProt P0DTD1); experiment: Inhibition of SARS-Cov-2 Main protease at <=500 uM by FRET assay

Row | Structure (SMILES) | IC50 [1] | inhibition [4] | further results
1 | C[C@H]1[C@H](NC(=O)[C@H](Cc2ccccc2)NC(=O)c2cc3ccccc3[nH]2)C(=O)N1S(=O)(=O)O | > 500 µM |  | 
2 | O=C(O)C1=C(C(=O)N(Cc2ccccc2)Cc2ccccc2)CN2C[C@H](NC(=O)[C@H](Cc3ccccc3)NC(=O)c3cc4ccccc4[nH]3)C(=O)N12 | 45 µM |  | IC50 [2]: 64 µM; inhibition [3]: Active
3 | C[C@H]1[C@H](N)C(=O)N1S(=O)(=O)O |  | inactive | 
4 | O=C(N[C@@H](Cc1ccccc1)C(=O)N[C@@H]1CONC1=O)c1cc2ccccc2[nH]1 | > 500 µM |  | 
5 | O=C(O)C1=C(Cl)CS[C@@H]2[C@H](NC(=O)[C@H](Cc3ccccc3)NC(=O)c3cc4ccccc4[nH]3)C(=O)N12 | 90 µM |  | 
6 | CC1(C)S[C@@H]2[C@H](NC(=O)[C@H](Cc3ccccc3)NC(=O)c3cc4ccccc4[nH]3)C(=O)N2[C@H]1C(=O)O | 134 µM |  | 
7 | CCC1C(=O)N(S(C)(=O)=O)CC1C(=O)OC (racemic; 11) |  | inactive | 
8 | N[C@H]1CN2CC(C(=O)N(Cc3ccccc3)Cc3ccccc3)=C(C(=O)O)N2C1=O | > 500 µM | inactive | 
9 | C=CCOC(=O)C1=C(C(=O)O)N2C(=O)[C@@H](NC(=O)[C@H](Cc3ccccc3)NC(=O)c3cc4ccccc4[nH]3)CN2C1 | 192 µM |  | 
10 | N[C@@H]1C(=O)N2C(C(=O)O)=C(Cl)CS[C@H]12 |  | inactive | 
11 | CCN(CC)C(=O)C1=C(C(=O)O)N2C(=O)[C@@H](NC(=O)[C@H](Cc3ccccc3)NC(=O)c3cc4ccccc4[nH]3)CN2C1 | 279 µM |  | 
12 | CCC1C(=O)N(S(C)(=O)=O)CC1C(=O)OC (racemic; 10) |  | inactive | 
13 | O=C(O)C1=C(C(=O)NCc2ccccc2)CN2C[C@H](NC(=O)[C@H](Cc3ccccc3)NC(=O)c3cc4ccccc4[nH]3)C(=O)N12 | 178 µM |  | 
14 | CC1(C)[C@H](C(=O)O)N2C(=O)C[C@H]2S1(=O)=O |  | inactive | 
15 | O=C(O)C1=C(C(=O)N(Cc2ccccc2)Cc2ccccc2)CN2C[C@H](NC(=O)[C@H](C[C@@H]3CCNC3=O)NC(=O)[C@H](Cc3ccccc3)NC(=O)c3cc4ccccc4[nH]3)C(=O)N12 | 163 µM |  | 
16 | C[C@@H](O)[C@H]1C(=O)N2C(C(=O)O)=C([C@H]3CCCO3)S[C@H]12 |  | inactive | 
17 | CN(Cc1ccccc1)C(=O)C1=C(C(=O)O)N2C(=O)[C@@H](NC(=O)[C@H](Cc3ccccc3)NC(=O)c3cc4ccccc4[nH]3)CN2C1 | > 500 µM |  | 
18 | CC1(C)S[C@@H]2[C@H](N)C(=O)N2[C@H]1C(=O)O |  | inactive | 
19 | NC(=O)[C@@H]1CC[C@@H]2CN1C(=O)N2OS(=O)(=O)O |  | inactive | 
20 | O=C(N[C@@H](Cc1ccccc1)C(=O)O)c1cc2ccccc2[nH]1 | > 500 µM |  | 
21 | O=C(O)C1=C(C(=O)N2CCCC2)CN2C[C@H](NC(=O)[C@H](Cc3ccccc3)NC(=O)c3cc4ccccc4[nH]3)C(=O)N12 | 181 µM |  | 
22 | C[C@@H](O)[C@H]1C(=O)N2C(C(=O)O)=C(SCCNC=N)C[C@H]12 |  | inactive | 
23 | O=C(O)C1=C(C(=O)NCc2ccncc2)CN2C[C@H](NC(=O)[C@H](Cc3ccccc3)NC(=O)c3cc4ccccc4[nH]3)C(=O)N12 | 201 µM |  | 
24 | N[C@@H]1CONC1=O |  | inactive | 
